Measured values published in PMC6981581, “N-(2-Arylmethylthio-4-Chloro-5-Methylbenzenesulfonyl)amide Derivatives as Potential Antimicrobial Agents—Synthesis and Biological Studies” (International Journal of Molecular Sciences, 2019).
Converted amounts (≈) assume the structure as drawn. “And” between values parts separate entries of the source, which are not always exact repeats. Equal values may be shown once. Read-outs that look alike come from different tables or passages of the source.

Legend:
Type in all cases: cell-based
[1] = tested on: Enterococcus faecalis ATCC 11420; test: Broth dilution MIC/MBC, reference strain; conditions: for MBC/MIC: E. f. ATCC 11420; for MBC / MIC: Enterococcus faecalis, ATCC11420
Procedure: (§1) The tests were carried out using a serial dilution method, allowing the determination of MIC (minimal concentration inhibiting bacterial growth), MBC (minimal bactericidal concentration), and MFC (minimal fungicidal concentration) values.
(§2) Antimicrobial activity was tested using the following reference strains: Staphylococcus aureus ATCC 6538 (MSSA), Staphylococcus aureus ATCC 43300 (MRSA), Staphylococcus epidermidis PCM 2118, Escherichia coli ATCC 11229, Pseudomonas aeruginosa ATCC 15442, Proteus vulgaris NCTC 4635, Enterococcus faecalis ATCC 11420, and Candida albicans ATCC 10231.
(§3) A broth dilution method was used to determine minimal inhibitory concentration (MIC) for tested compounds as recommended by Clinical Laboratory Standards Institute (CLSI) guidelines. Investigated compounds were diluted in Mueller Hinton Broth 2 (Sigma-Aldrich Co., St. Louis, MO, USA) in polypropylene 96-well plates and initial inoculum 5 × 10^5 cfu/mL were incubated at 37 °C for 18 h. MIC was taken as the lowest drug concentration at which an observable growth was inhibited. […] The loopful (10 µL) of the tested sample was transferred to Tryptic Soy Agar (TSA, Becton-Dickinson, Franklin Lakes, NJ, USA) and incubated at 37 °C for 48 h. […] Drug Solutions were made fresh on the day of the assay. All experiments were performed in triplicate.

[2] = tested on: Escherichia coli ATCC 11229; test: Broth dilution MIC/MBC, reference strain; conditions: for MBC/MIC: E. c. ATCC 11229; for MBC / MIC: Escherichia coli, ATCC11229
Procedure: as §1, §2, §3

[3] = tested on: Proteus vulgaris NCTC 4635; test: Broth dilution MIC/MBC, reference strain; conditions: for MBC/MIC: P. v. NCTC 4635; for MBC / MIC: Proteus vulgaris, NCTC4635
Procedure: as §1, §2, §3

[4] = tested on: Pseudomonas aeruginosa ATCC 15442; test: Broth dilution MIC/MBC, reference strain; conditions: for MBC/MIC: P. a. ATCC 15442; for MBC / MIC: Pseudomonas aeruginosa, ATCC15442
Procedure: as §1, §2, §3

[5] = tested on: Staphylococcus aureus ATCC 43300 (MRSA); test: Broth dilution MIC/MBC, reference strain; conditions: for MBC/MIC: S. a. ATCC 43300; for MBC / MIC: Staphylococcus aureus
Procedure: as §1, §2, §3

[6] = tested on: Staphylococcus aureus ATCC 6538 (MSSA); test: Broth dilution MIC/MBC, reference strain; conditions: for MBC/MIC: S. a. ATCC 6538; for MBC / MIC: Staphylococcus aureus
Procedure: as §1, §2, §3

[7] = tested on: Staphylococcus epidermidis PCM 2118; test: Broth dilution MIC/MBC, reference strain; conditions: for MBC/MIC: S. e. PCM 2118
Procedure: as §1, §2, §3

[8] = tested on: Candida albicans ATCC 10231; test: Broth dilution MIC/MFC, reference fungal strain; conditions: for MFC/MIC: C. a. ATCC 10231; for MFC / MIC: Candida albicans, ATCC10231
Procedure: as §1, §2, §3

[9] = tested on: HaCaT cell line (human keratinocyte); test: MTT cell viability assay; conditions: MTT assay, 72 h incubation, mean ± SD, read-out: IC50 HaCaT
HCT-116 (colon cancer) = test: MTT cell viability assay; conditions: Homo sapiens, 72 h incubation, mean ± SD
Procedure: (§4) Analysis was performed using the MTT test and 72 h of incubation.
(§5) All chemicals were obtained from Sigma-Aldrich (St. Louis, MO, USA). The MCF-7 and HeLa cell lines were purchased from Cell Lines Services (Eppelheim, Germany), the HCT-116 cell line was purchased from ATCC (ATCC-No: CCL-247). Cells were cultured in Dulbecco’s modified Eagle’s medium (DMEM) supplemented with 10% fetal bovine serum, 2 mM glutamine, 100 units/mL penicillin, and 100 μg/mL streptomycin. Cultures were held in an incubator (Heraceus, HeraCell) in a humidified atmosphere with 5% CO2 at 37 °C.
(§6) Cell viability was evaluated using the MTT (3-(4,5-dimethylthiazol-2-yl)-2,5-diphenyltetrazolium bromide) assay. Stock solutions of the studied compounds were obtained in 100% DMSO. […] Cells at a density of 5 × 10^3 cells/well, seeded in 96-well plates, were treated for 72 h with the tested compounds in the concentration range 1–100 μM (1, 10, 25, 50 and 100 μM). After treatment, cells were incubated for 2 h with MTT (0.5 mg/mL) at 37 °C. Cells were lysed with DMSO and the absorbance of the formazan solution was measured at 550 nm with a plate reader (1420 multilabel counter, Victor, Jügesheim, Germany). Values are expressed as the mean ± SD of at least three independent experiments conducted in triplicate.

HeLa (cervical cancer) = test: MTT cell viability assay; conditions: Homo sapiens, 72 h incubation, mean ± SD
Procedure: as §4, §5, §6

MCF-7 (breast cancer) = test: MTT cell viability assay; conditions: Homo sapiens, MCF7, 72 h incubation, mean ± SD
Procedure: as §4, §5, §6

[10] = E. faecalis ATCC 11420, read-out: MBC
[11] = E. faecalis ATCC 11420, read-out: MIC
[12] = E. coli ATCC 11229, read-out: MBC
[13] = E. coli ATCC 11229, read-out: MIC
[14] = P. vulgaris NCTC 4635, read-out: MBC
[15] = P. vulgaris NCTC 4635, read-out: MIC
[16] = P. aeruginosa ATCC 15442, read-out: MBC
[17] = P. aeruginosa ATCC 15442, read-out: MIC
[18] = S. aureus ATCC 43300, read-out: MBC
[19] = S. aureus ATCC 43300, read-out: MIC
[20] = S. aureus ATCC 6538, read-out: MBC
[21] = S. aureus ATCC 6538, read-out: MIC
[22] = Staphylococcus epidermidis, PCM2118, S. epidermidis PCM 2118, read-out: MBC
[23] = Staphylococcus epidermidis, PCM2118, S. epidermidis PCM 2118, read-out: MIC
[24] = C. albicans ATCC 10231, read-out: MFC
[25] = C. albicans ATCC 10231, read-out: MIC

Structure (SMILES)	MBC/MIC [1]	MBC [1, 10] [µg/mL]	MIC [1, 11] [µg/mL]	MBC/MIC [2]	MBC [2, 12] [µg/mL]	MIC [2, 13] [µg/mL]	MBC/MIC [3]	MBC [3, 14] [µg/mL]	MIC [3, 15] [µg/mL]	MBC/MIC [4]	MBC [4, 16] [µg/mL]	MIC [4, 17] [µg/mL]	MBC/MIC [5]	MBC [5, 18] [µg/mL]	MIC [5, 19] [µg/mL]	MBC/MIC [6]	MBC [6, 20] [µg/mL]	MIC [6, 21] [µg/mL]	MBC/MIC [7]	MFC/MIC [8]	further results
Cc1cc(S(=O)(=O)NC(=O)CCC2CCCCC2)c(SCc2ccc3ccccc3c2)cc1Cl [Compound 12, N-[4-Chloro-5-methyl-2-(naphthalen-2-ylmethylthio)benzenesulfonyl]-3-cyclohexylpropanamide]	>4	> 128	32 (≈ 62 µM)	>1	> 128	128 (≈ 248 µM)	>1	> 128	128 (≈ 248 µM)	1	128 (≈ 248 µM)	128 (≈ 248 µM)	>16	> 128	8 (≈ 15.5 µM)	16	128 (≈ 248 µM)	8 (≈ 15.5 µM)	32	2	MBC [7, 22]: 128 µg/mL (≈ 248 µM); MIC [7, 23]: 4 µg/mL (≈ 7.75 µM); MFC [8, 24]: 128 µg/mL (≈ 248 µM); MIC [8, 25]: 64 µg/mL (≈ 124 µM); IC50 [9]: 47 µg/mL and 92 µM; IC50 (HCT-116 (colon cancer)): 77 ± 3 µM; IC50 (HeLa (cervical cancer)): 88 ± 3 µM; IC50 (MCF-7 (breast cancer)): 94 ± 3 µM
Cc1cc(S(=O)(=O)NC(=O)C=Cc2ccccc2)c(SCc2ccccc2)cc1Cl [Compound 13, N-{[2-(Benzylthio)-4-chloro-5-methylphenyl]sulfonyl}cinnamamide]	>1	–	–	>1	–	–	>1	–	–	>1	–	–	>4	–	–	>4	–	–	>4	2	MBC [1]: > 128 µg/mL; MIC [1]: > 128 µg/mL; MBC [2]: > 128 µg/mL; MIC [2]: 128 µg/mL (≈ 279 µM); MBC [3]: > 128 µg/mL; MIC [3]: 128 µg/mL (≈ 279 µM); MBC [4]: > 128 µg/mL; MIC [4]: 128 µg/mL (≈ 279 µM); MBC [5]: > 128 µg/mL; MIC [5]: 32 µg/mL (≈ 69.9 µM); MBC [6]: > 128 µg/mL; MIC [6]: 32 µg/mL (≈ 69.9 µM); MIC ([7]; Staphylococcus epidermidis, PCM2118): 32 µg/mL (≈ 69.9 µM); MBC ([7]; Staphylococcus epidermidis, PCM2118, S. epidermidis PCM 2118): > 128 µg/mL; MFC [8]: 128 µg/mL (≈ 279 µM); MIC [8]: 64 µg/mL (≈ 140 µM)
Cc1cc(S(=O)(=O)NC(=O)C=Cc2ccccc2)c(SCc2ccc(C(F)(F)F)cc2)cc1Cl [Compound 14, N-[4-Chloro-5-methyl-2-(4-trifluoromethylbenzylthio)benzenesulfonyl]cinnamamide]	>8	> 128	16 (≈ 30.4 µM)	1	128 (≈ 243 µM)	128 (≈ 243 µM)	>1	> 128	128 (≈ 243 µM)	2	128 (≈ 243 µM)	64 (≈ 122 µM)	16	128 (≈ 243 µM)	8 (≈ 15.2 µM)	16	128 (≈ 243 µM)	8 (≈ 15.2 µM)	2	2	MIC [7, 23]: 8 µg/mL (≈ 15.2 µM); MFC [8, 24]: 128 µg/mL (≈ 243 µM); MIC [8, 25]: 64 µg/mL (≈ 122 µM); IC50 [9]: 147 µg/mL and 280 µM; IC50 (HCT-116 (colon cancer)): 81 ± 1 µM; IC50 (HeLa (cervical cancer)): 96 ± 5 µM; IC50 (MCF-7 (breast cancer)): 73 ± 1 µM
Cc1cc(S(=O)(=O)NC(=O)C=Cc2ccccc2)c(SCc2cccc(C(F)(F)F)c2)cc1Cl [Compound 15, N-[4-Chloro-5-methyl-2-(3-trifluoromethylbenzylthio)benzenesulfonyl]cinnamamide]	>8	> 128	16 (≈ 30.4 µM)	1	128 (≈ 243 µM)	128 (≈ 243 µM)	>2	> 128	64 (≈ 122 µM)	2	128 (≈ 243 µM)	64 (≈ 122 µM)	16	128 (≈ 243 µM)	8 (≈ 15.2 µM)	16	128 (≈ 243 µM)	8 (≈ 15.2 µM)	1	2	MBC ([7]; S. epidermidis PCM 2118): 8 µg/mL (≈ 15.2 µM); MBC [7, 22]: 4 to 16 µg/mL (≈ 7.6 to 30.4 µM); MIC [7, 23]: 8 µg/mL (≈ 15.2 µM); MFC [8, 24]: 128 µg/mL (≈ 243 µM); MIC [8, 25]: 64 µg/mL (≈ 122 µM); IC50 [9]: 79 µg/mL and 150 µM; IC50 (HCT-116 (colon cancer)): 86 ± 2 µM; IC50 (HeLa (cervical cancer)): 165 ± 9 µM; IC50 (MCF-7 (breast cancer)): 93 ± 3 µM
